Experimental data as given in article PMC9951978, “Comparative Study of Different H2S Donors as Vasodilators and Attenuators of Superoxide-Induced Endothelial Damage” (Antioxidants, 2023).

Key:
[1] = Stability of the compounds in human serum (RP-HPLC); type: in vitro ADME; conditions: 37 °C; for % Compd ± SE: 200 µM; for half-life at 200 µM: male, read-out: Half-life (t1/2)
Experimental: A solution of each compound (10 mM) in DMSO was added to human serum (obtained by filtration and sterilization from AB, Sigma-Aldrich (Merck KGaA, 64,271 Darmstadt, Germany) male human blood) and was preheated to 37 °C to obtain a final concentration of 200 µM. The resulting solution was incubated at 37.0 ± 0.5 °C, and aliquots of 300 µL were taken at appropriate time intervals and added to 300 µL of CH3CN acidified with 0.1% formic acid in order to deproteinize the serum. The mixture was centrifuged for 10 min at 2150× g, and the clear supernatant was filtered (PTFE filters, 0.45 µm, VWR (VWR International S.r.l., Milano, Italy)) and analyzed by RP-HPLC as described below. All experiments were performed at least in triplicate.
(§1) RP-HPLC analysis was performed with an HP 1100 chromatograph system (Agilent Technologies, Palo Alto, CA, USA) equipped with an injector (Rheodyne, Cotati, CA, USA), a quaternary pump (model G1311A), a membrane degasser (model G1379A), and a diode-array detector (DAD, model G1315B) integrated into the HP1100 system. The data were processed using an HP ChemStation system (Agilent Technologies, Palo Alto, CA, USA). A stationary phase Tracer Excel 120 ODSB (25 × 0.46, 5 μm; Tecnokroma (Teknokroma Analytical S.A., Barcelona, Spain)) was used. The mobile phase consisted of acetonitrile 0.1% HCOOH/water 0.1% HCOOH at a flow rate of 1.0 mL/min, with gradient elution: 35% acetonitrile up to 5 min, 35 to 80% acetonitrile between 5 and 10 min, 80% acetonitrile between 10 and 20 min. The injection volume was 20 μL. The column effluent was monitored for each compound at the wavelength of maximum absorption (referenced against a 700 nm wavelength). Using this RP-HPLC procedure, we separated the compounds from any degradation products and we quantified the compounds during incubation time. The quantification was performed using a calibration curve obtained with standard solutions of compounds chromatographed under the same experimental conditions, in a concentration range of 1–100 μM (r^2 > 0.99).

rat aorta strips = assay: Vasodilating activity on endothelium-denuded rat aorta strips precontracted with KCl; type: cell-based; conditions: for activation at 100 µM / activation at 300 µM / activation at 10 µM: rat aorta strips precontracted with KCl, read-out: % Vasodilation at the maximum concentration testable; for EC50: endothelium-denuded rat aorta strips precontracted with 25 mM KCl, read-out: Vasodilating activity EC50 ± SEM; for Effect of glibenclamide on the concentration-response curve / EC50: presence vs absence of K+ATP channel blocker glibenclamide
Experimental: Vasodilating activity was studied on the thoracic aortas from male Wistar rats (180–200 g), following a protocol published elsewhere. All synthesized compounds were dissolved in DMSO. The addition of the vehicle had no perceptible consequence on contraction level. Results were expressed as EC50 ± SE (μM), n = 3–8.
The vasodilator action of H2S-releasing compounds was evaluated on endothelium-denuded rat aorta strips precontracted with KCl. The results reported in Table 1 show the heterogeneous behavior of the tested compounds.

[2] = Stability at pH 7.4 in phosphate buffer (PBS); type: physicochemical; conditions: PBS pH 7.4, 37 °C
Experimental: (§2) The compounds were solubilized at a concentration of 100 µM (starting from a 10 mM stock solution in DMSO) in 0.1 M PBS, pH = 7.4, in the absence or presence of 5 mM L-cysteine (50×). The solutions were incubated at 37.0 ± 0.5 °C, and at appropriate time intervals, aliquots were analyzed by RP-HPLC as described below. All experiments were performed at least in triplicate.
as §1

[3] = Stability at pH 7.4 in PBS in the presence of L-cysteine (50x); type: physicochemical; conditions: pH 7.4, 37 °C; for half-life at 100 µM: phosphate buffer (PBS) with L-cysteine, read-out: t1/2, buffer + cysteine (50×) (converted)
Experimental: as §2, §1

[4] = tested on: endothelium-intact rat aortic rings; assay: Vasoprotection: acetylcholine-induced relaxation in rat aortic rings with endothelium impairment induced by pyrogallol; type: cell-based
Experimental: The experiments were performed on rat thoracic aortic rings from male Wistar rats (180–200 g), prepared as previously described. The effect of H2S donor or catechin, taken as a reference, on acetylcholine-induced relaxation in aortic rings pre-incubated with pyrogallol was studied as published elsewhere, with some modifications. Aortic rings were incubated with diethyldithiocarbamate (DETCA) 10 mM for 1 h to irreversibly inactivate endogenous superoxide dismutase (SOD). Then, the aortic rings were washed and randomly divided into four groups: (1) control: endothelium-intact rings incubated in Krebs’ solution with vehicle only (DMSO); (2) H2S donor: endothelium-intact rings incubated with H2S donor (100 μM) or reference catechin (10 mM) for 30 min; (3) pyrogallol: endothelium-intact rings incubated with 500 μM pyrogallol for 15 min; (4) H2S donor plus pyrogallol: endothelium-intact rings incubated with H2S donor (100 μM) or reference catechin (10 mM) for 30 min and 500 μM pyrogallol for the last 15 min. After the incubation time, the rings were washed, 1 μM phenylephrine was added to the organ baths, then acetylcholine (10^−9–l0^−5 M) was added cumulatively. Tension was measured and calculated as the percentage of contraction in response to phenylephrine (1 μM). Data were expressed as mean ± SEM, n = 3–9.
Figure 3 Effect of 6 (100 μM) on acetylcholine-induced vasodilation in endothelium-intact rat aortic rings. […] Statistical analyses were made using Student’s t-test for unpaired data. ** p < 0.01 vs. the pyrogallol group.

SMILES | % Compd ± SE ([1]; 1 h) [%] | % Compd ± SE ([1]; 4 h) [%] | % Compd ± SE ([1]; 24 h) [%] | Stability (% compound ± SE), buffer ([2]; 24 h) [%] | Stability (% compound ± SE), buffer + cysteine (50×) ([3]; 1 h) [%] | Stability (% compound ± SE), buffer + cysteine (50×) ([3]; 24 h) [%] | half-life at 200 µM [1] [h] | also measured
O=C(O)COc1ccc(-c2cc(=S)ss2)cc1 [Compound 13] | 99.2 ± 0.1 | 96.0 ± 0.8 | 94.3 ± 2 | 101.8 ± 1.4 | 99.0 ± 0.4 | 81.9 ± 0.1 | – | activation at 100 µM (rat aorta strips; 100 μM): 39%; Stability (% compound ± SE), buffer + cysteine (50×) ([3]; 6 h): 96.6 ± 0.1%
O=C(O)c1ccc(-c2cssc2=S)cc1 [Compound 11] | 96.3 ± 0.2 | 90.0 ± 0.9 | 53 ± 2 | 94.8 ± 3.2 | 99.0 ± 0.3 | 37.6 ± 0.1 | – | activation at 100 µM (rat aorta strips; 100 μM): 42%; Stability (% compound ± SE), buffer + cysteine (50×) ([3]; 6 h): 82.6 ± 0.2%
NC(=S)c1ccc(C(=O)O)cc1 [Compound 17] | 91.6 ± 0.3 | 85.0 ± 0.1 | 64.7 ± 0.2 | 82.3 ± 0.4 | 97.6 ± 0.2 | 25.0 ± 0.6 | – | activation at 300 µM (rat aorta strips): 27%; Stability (% compound ± SE), buffer + cysteine (50×) ([3]; 6 h): 84.1 ± 0.2%
C=CCSSCCC(=O)O [Compound 3] | 80.0 ± 1.0 | 62 ± 2 | 44 ± 1 | 101.0 ± 1.0 | – | – | – | half-life at 100 µM [3]: ~0.167 h
C=CCSSCCC(=O)OCC [Compound 4] | – | – | – | – | – | – | < 0.5 | % Vasodilation at the maximum concentration testable, + Glib. 10 μM (rat aorta strips; 100 μM, in the presence of glibenclamide 10 μM): [44 ± 3] ^2%; EC50 (rat aorta strips): 64 ± 6 µM; Effect of glibenclamide on the concentration-response curve / EC50 (rat aorta strips): significantly rightward shifted
COC(=O)c1ccc(-c2ssc(=S)c2-c2ccccc2)cc1 [Compound 10] | – | – | – | – | – | – | 2.4 | activation at 10 µM (rat aorta strips): 29%
O=C(O)c1ccc(-c2ssc(=S)c2-c2ccccc2)cc1 [Compound 9] | 94.2 ± 0.2 | 90.0 ± 0.8 | 83 ± 1 | 92.6 ± 0.8 | 98.6 ± 0.3 | 78.1 ± 0.3 | – | EC50 (rat aorta strips): 78 ± 7 µM; Effect of glibenclamide on the concentration-response curve / EC50 (rat aorta strips): significantly rightward shifted; Stability (% compound ± SE), buffer + cysteine (50×) ([3]; 6 h): 94.9 ± 0.7%
CCOC(=O)COc1ccc(-c2cc(=S)ss2)cc1 [Compound 14] | – | – | – | – | – | – | 0.5 | activation at 10 µM (rat aorta strips): 37%
C=CCSCC(NC(C)=O)C(=O)O (stereo not shown) [Compound 1] | 88 ± 1 | 35 ± 1 | 8.0 ± 0.5 | 91.5 ± 1.0 | 87.3 ± 1.0 | 69.5 ± 1.0 | – | Stability (% compound ± SE), buffer + cysteine (50×) ([3]; 6 h): 72.5 ± 1.0%
O=C(O)c1csc(=S)s1 [Compound 15] | 99.2 ± 0.1 | 95 ± 1 | 94.8 ± 2 | 100.0 ± 1.0 | 100.0 ± 0.2 | 96.6 ± 1.0 | – | activation at 300 µM (rat aorta strips): 17%
C=CCSSCC(NC(C)=O)C(=O)O (stereo not shown) [Compound 5] | 64 ± 1 | 39 ± 1 | 16 ± 1 | 87.7 ± 1.0 | – | – | – | activation at 300 µM (rat aorta strips): 16%; half-life at 100 µM [3]: ~0.0833 h
CCOC(=O)c1ccc(-c2cssc2=S)cc1 [Compound 12] | – | – | – | – | – | – | 2.7 | Effect of glibenclamide on the concentration-response curve / EC50 (rat aorta strips): almost the same
COC(=O)c1ccc(C(N)=S)cc1 [Compound 18] | – | – | – | – | – | – | 3.7 | activation at 10 µM (rat aorta strips): 33%
COC(=O)c1csc(=S)s1 [Compound 16] | – | – | – | – | – | – | 1.5 | activation at 100 µM (rat aorta strips; 100 μM): 25%
CC(=O)NSC(=O)c1ccccc1 [Compound 8] | – | – | – | – | – | – | < 0.5 | Ach-induced maximum relaxation ([4]; H2S donor 100 μM without exposure to pyrogallol): did not reduce Ach-induced maximum relaxation; Ach-induced maximal relaxation ([4]; rings incubated with H2S donor 100 μM 30 min and 500 μM pyrogallol last 15 min): not able to reduce pyrogallol-induced endothelium impairment; Effect of glibenclamide on the concentration-response curve / EC50 (rat aorta strips): almost the same
O.Oc1cc(O)c2c(c1)O[C@H](c1ccc(O)c(O)c1)[C@@H](O)C2 [catechin, reference compound] | – | – | – | – | – | – | – | Ach-induced maximal relaxation ([4]; rings incubated with catechin 10 mM and 500 μM pyrogallol): 77 ± 3%
O=C(O)CCC(=O)NSC(=O)c1ccccc1 [Compound 7] | 19.8 ± 0.7 | 0 | 0 | 57.1 ± 3.3 | – | – | – | activation at 300 µM (rat aorta strips): 12%; Stability (% compound ± SE), buffer ([2]; 6 h): 91.6 ± 1.1%; half-life at 100 µM [3]: ~1.3 h
Oc1cccc(O)c1O [pyrogallol, reference compound] | – | – | – | – | – | – | – | Maximum Ach-induced relaxation ([4]; rings incubated with 500 μM pyrogallol alone for 15 min (control 80 ± 3%)): 15 ± 3%
